Laboratory results reported in patent publication US12280026B2, “Use of repirinast in the prophylaxis or treatment of renal fibrosis or kidney disease” (ALGERNON PHARMACEUTICALS INC., priority 2018, dated 2025).
“Also recorded” adds a separate entry of the source. Marks after values point to notes of the source that are not given here.

Legend:
[1] = tested on: C57BL/6 mice with UUO surgical ligation; assay: Example 1: UUO mice, renal fibrosis evaluation (Sirius Red histology score); format: in vivo; settings: Bemithyl 200, Emoxypine 160, Suplatast Tosylate 60, Udenafil 40, Telmisartan 5 mg/kg PO QD
Protocol: (§1) Male 9-12 week old C57BL/6 mice of 23-25 grams body weight were used. All mice were acclimated for a minimum of 5 days prior to the start of the study and housed individually in microisolators throughout the study in a 12:12 light-dark cycle on a standard maintenance mouse chow diet (Harlan Teklad 2018) with food and water given ad libitum. Prior to surgery, all mice were weighed for baseline body weight.
(§2) The UUO surgical intervention was performed according to previously described methods known in the art (Le Meur Y et al., Macrophage accumulation at a site of renal inflammation is dependent on the M-CSF/c-fms pathway, J Leukocyte Biol., 72:530-537; 2002).
(§3) All mice were first anesthetized by intraperitoneal injection with a rodent cocktail (ketamine 10 mg/mL and Xyaline 1 mg/mL) in normal saline (10 μL/g body weight). Pedal reflex and movement of the vibrissae were used to determine the state of unconsciousness. A state of unconsciousness was confirmed after a period of about 5 minutes in all animals. All mice were then shaved on the left side of the abdomen. The shaved area was first swabbed with iodine and then swabbed with alcohol. A vertical incision was made through the skin with a #22 scalpel and the skin was then retracted. A further incision of about 2.5 cm was then made through the peritoneum avoiding any major blood vessels. The peritoneum was then retracted and the left kidney was exposed.
(§4) The left kidney was then brought to the surface by hooking the ureter directly beneath the kidney with sterile forceps and gently manipulating the kidney upward. The ureter was ligated at two points directly below the kidney with 5-0 surgical silk with excess suture cut away and discarded post-ligation. The kidney was then gently placed back to its correct anatomical position and the abdomen was lavaged with 1 mL sterile saline to replenish fluid loss. The peritoneum and then skin were sutured with 5-0 Mersilene, and the incision site was gently wiped with iodine. All mice were then placed individually in clean cages that were set on top of a thermal blanket until recovery at about 30-60 minutes later. In some examples, sham surgery was performed as a control by following all steps of the UUO surgical intervention procedure except ligation.
(§5) Following surgery, the mice were divided into 14 individual study groups of 8 mice each and, following post-surgical recovery, administered a once-daily oral treatment for 14 days. The mice in 12 of the 14 study groups (hereafter known as “treatment groups”) had all received the UUO surgical ligation and were treated individually with a distinct pharmacologic compound as set out in Table 1. The mice in 2 of the 14 study groups were treated individually with a pharmaceutically acceptable vehicle with no active ingredient. The pharmaceutically acceptable vehicle in all groups was 0.5% carboxymethyl cellulose (CMC). All mice were sacrificed with CO2 on post-surgical day 15.
The dose selected for the animal studies was determined by taking the maximum known human daily dose, dividing by the average weight of an adult (˜60-70 kg) to get a human mg/kg dose. […]
Histopathology: Formalin-fixed kidney cross-section samples were subjected histopathological scoring with Sirius Red staining, and imaged at a magnification of ×20, using standard techniques. All three sections were stained and evaluated. […] The presence of interstitial damage and severity score was assessed according to the following criteria: 0=normal, 1=light, 2=moderate, 3=severe. […]

[2] = tested on: C57BL/6 mice with UUO surgical ligation; assay: Example 1: UUO mice, renal function evaluation (plasma BUN, creatinine); format: in vivo; settings: Example 1; for Reduction in BUN compared to vehicle, significance in words: Bonferroni post-test, Suplatast Tosylate 60, Iguratimod 15, Lobenzarit 48, Actarit 60, Udenafil 40 mg/kg PO QD; for BUN in comparison to control groups, in words: UUO, male C57BL/6 mice, PO QD days 1-14, doses of Table 1
Protocol: as §1, §2, §3, §4, §5
(§6) The dose selected for the animal studies was determined by taking the maximum known human daily dose, dividing by the average weight of an adult (˜60-70 kg) to get a human mg/kg dose. Then that number was multiplied by 12 to convert to a mouse dose based on conventional dosing tables. See Nair and Jacob, J Basic Clin Pharm March 2016-May 2016, 7(2):27-31.
(§7) Serum collection: A blood sample was then collected from all mice and plasma analyzed for urea nitrogen and creatinine. Plasma was stored at −80° C. for possible future analysis.
(§8) Renal Function Evaluation: Renal function and disease progression was evaluated by BUN (blood urea nitrogen) as previously described. The BUN of each study group consisted of the BUN average of all mice in each study group.

[3] = tested on: C57BL/6 mice with UUO surgical ligation; assay: Example 2: UUO mice, renal fibrosis evaluation (Sirius Red histology score); format: in vivo
Protocol: (§9) In this example, healthy young female C57BL/6 mice were used for the study. At the commencement of the study, mice were between 9-12 weeks of age, weighing 23-25 g. All the mice were obtained from Charles River Laboratories.
(§10) The mice were maintained in a controlled environment with a temp 70-72° F., humidity 30-70%, with a photo cycle of 12 hours of light and 12 hours of dark. They were provided with Harlan Teklad 2018 standard maintenance mouse chow diet and drinking water ad libitium.
(§11) After five days of acclimatization, the mice were grouped according to their body weight. There were ten groups of ten mice each. Nine groups of ten mice each underwent UUO as described above and the other group of ten mice underwent a sham procedure to serve as a no-surgery control.
(§12) Following surgery, the mice were divided into 10 individual study groups of 10 mice each and, following post-surgical recovery, administered a once-daily oral treatment for 14 days. The mice in 8 of the 10 study groups had all received the UUO surgical ligation and were treated individually with a distinct pharmacologic compound as set out in Table 6. The mice in 2 of the 10 study groups were treated individually with a pharmaceutically acceptable vehicle with no active ingredient. The pharmaceutically acceptable vehicle in all groups was 0.5% carboxymethyl cellulose (CMC). All mice were sacrificed with CO2 on post-surgical day 15.
as §6, with “That” for “Then that”
Histopathology: Formalin-fixed kidney cross-section samples were subjected histopathological scoring with Sirius Red staining, and imaged at a magnification of ×20, using standard techniques. All three sections were stained and evaluated. The analysis was performed by a board-certified veterinarian pathologist. The presence of interstitial damage and severity score was assessed according to the following criteria: 0=normal; 1=light; 2=moderate; 3=severe.
(§13) The data are presented as the mean obtained from Microsoft Excel or GraphPad Prism version 5.00 for Windows (GraphPad Software, San Diego California USA). Data were analyzed using two-way ANOVA using Bonferroni and Tamhane post-tests. Differences between groups were considered significant at p<0.05.
Renal Fibrosis Evaluation: Renal fibrosis and interstitial damage was evaluated by histochemical staining of renal cross-sections with Sirius Red as previously described. The Histology Score of each study group consisted of the histology score average of all mice in each study group.

[4] = tested on: C57BL/6 mice with UUO surgical ligation; assay: Example 2: UUO mice, kidney weight evaluation; format: in vivo; settings: group mean, UUO, female C57BL/6 mice, PO QD days 1-14, mg/kg: Telmisartan 3, Bemithyl 200, Repirinast 30, Telmisartan+Bemithyl 3+200, Telmisartan+Repirinast 3+30, Cenicriviroc 40, Bromantane 40
Protocol: as §9, §10, §11, §12
as §6, with “That” for “Then that”
Kidney weight: The UUO was then examined in situ to ensure that the surgical ligation ties remained patent. Both the ligated (UUO) and non-ligated kidneys were removed for analysis. Weights of both kidneys were measured using a laboratory balance.
as §13
Kidney Weight Evaluation: Kidney weight, which indicates functional and pathological changes in the kidney, was evaluated by measuring the weight of both the ligated (UUO) and non-ligated kidneys as previously described. The ligated and non-ligated kidney weights of each study group consisted of the respective kidney weight averages of all mice in each study group.

[5] = tested on: C57BL/6 mice with UUO surgical ligation; assay: Example 2: UUO mice, renal function evaluation (plasma BUN, creatinine); format: in vivo
Protocol: as §9, §10, §11, §12
as §6, with “That” for “Then that”
as §7, §13, §8

[6] = Example 2: UUO mice, mean body weight change following surgery; format: in vivo, C57BL/6 mice; settings: UUO, female C57BL/6 mice, PO QD days 1-14, mg/kg: Telmisartan 3, Bemithyl 200, Repirinast 30, Telmisartan+Bemithyl 3+200, Telmisartan+Repirinast 3+30, Cenicriviroc 40, Bromantane 40
Protocol: as §9, §10, §11, §12
as §6, with “That” for “Then that”
Body weight: The body weights were measured on days 1, 4, 7, 10 and 14 using a laboratory balance.
Body weights were measured on post-surgical days 1, 4, 7, 10 and 14 as previously described. The mean body weight change of each study group was calculated using the body weight average of all mice in each study group.

[7] = Example 2, mg/kg PO QD: Telmisartan 3, Bemithyl 200, Repirinast 30, Telmisartan+Bemithyl 3+200, Telmisartan+Repirinast 3+30, Cenicriviroc 40, Bromantane 40

CCCOc1ccc(S(=O)(=O)NCCC2CCCN2C)cc1-c1nc(=O)c2c([nH]1)c(CCC)nn2C (stereo not shown) [Udenafil]
Kidney fibrosis / Histology Score, significance and comparison in words [1]: significant reductions in kidney fibrosis; also recorded: significant reduction in fibrosis compared to vehicle
Reduction in BUN compared to vehicle, significance in words [2]: significant reductions in BUN
BUN in comparison to control groups, in words [2]: less renal dysfunction and disease progression than the positive control treatment; also recorded: decreased in comparison to the sham surgery control group

CCCCOCCOc1ccc(-c2ccc3c(c2)/C=C(/C(=O)Nc2ccc([S@@+]([O-])Cc4cncn4CCC)cc2)CCCN3CC(C)C)cc1 [Cenicriviroc]
Level of kidney fibrosis / histology score compared to vehicle or other agents, in words [3, 7]: statistically insignificant improvements
Histology Score ([3]; Sirius Red, 0=normal, 1=light, 2=moderate, 3=severe, group mean, UUO, female C57BL/6 mice, PO QD days 1-14, mg/kg: Telmisartan 3, Bemithyl 200, Repirinast 30, Telmisartan+Bemithyl 3+200, Telmisartan+Repirinast 3+30, Cenicriviroc 40, Bromantane 40): 1.63*#
Reduction of fibrosis (%) (versus vehicle) ([3]; from histology score, UUO, female C57BL/6 mice, PO QD days 1-14, mg/kg: Telmisartan 3, Bemithyl 200, Repirinast 30, Telmisartan+Bemithyl 3+200, Telmisartan+Repirinast 3+30, Cenicriviroc 40, Bromantane 40): 32%
Drained Left Kidney ([4]; ligated kidney drained): 0.1683 g
Excised Left Kidney ([4]; ligated kidney): 0.4091 g
Right Kidney (g) ([4]; unligated kidney): 0.1342* g
Level of BUN compared to vehicle or other agents, in words [5, 7]: this reduction was not significant
BUN ([5]; plasma at sacrifice day 15, group mean, * significant vs vehicle Bonferroni, # Tamhane (p<0.05), UUO, female C57BL/6 mice, PO QD days 1-14, mg/kg: Telmisartan 3, Bemithyl 200, Repirinast 30, Telmisartan+Bemithyl 3+200, Telmisartan+Repirinast 3+30, Cenicriviroc 40, Bromantane 40): 19.9 mg/dL
Creatinine ([5]; plasma at sacrifice day 15, group mean, UUO, female C57BL/6 mice, PO QD days 1-14, mg/kg: Telmisartan 3, Bemithyl 200, Repirinast 30, Telmisartan+Bemithyl 3+200, Telmisartan+Repirinast 3+30, Cenicriviroc 40, Bromantane 40): 0.21 mg/dL
Mean Body Weight Change Following Surgery, Day 1 ([6]; Day 1): 0 g
Mean Body Weight Change Following Surgery, Day 4 ([6]; Day 4): -0.30 g
Mean Body Weight Change Following Surgery, Day 7 ([6]; Day 7): -0.12 g
Mean Body Weight Change Following Surgery, Day 10 ([6]; Day 10): 0.18 g
Mean Body Weight Change Following Surgery, Day 14 ([6]; Day 14): 0.82 g

O=C(O)c1ccccc1Nc1cc(Cl)ccc1C(=O)O [Lobenzarit, 2-[(2-Carboxyphenyl)amino]-4-chlorobenzoic acid]
Reduction in BUN compared to vehicle, significance in words [2]: significant reductions in BUN
BUN in comparison to control groups, in words [2]: less renal dysfunction and disease progression than the positive control treatment; also recorded: decreased in comparison to the sham surgery control group

CC(=O)Nc1ccc(CC(=O)O)cc1 [Actarit, (4-Acetamidophenyl)acetic acid]
Reduction in BUN compared to vehicle, significance in words [2]: significant reductions in BUN
BUN in comparison to control groups, in words [2]: less renal dysfunction and disease progression than the positive control treatment; also recorded: decreased in comparison to the sham surgery control group

CCc1nc(C)ccc1O [Emoxypine, 2-Ethyl-6-methyl-3-hydroxypyridine]
Kidney fibrosis / Histology Score, significance and comparison in words [1]: the same as the positive control treatment group; also recorded: significant reductions in kidney fibrosis; also recorded: significant reduction in fibrosis compared to vehicle
BUN in comparison to control groups, in words [2]: less renal dysfunction and disease progression than the positive control treatment

CS(=O)(=O)Nc1cc2occ(NC=O)c(=O)c2cc1Oc1ccccc1 [Iguratimod, N-(7-(Methylsulfonamido)-4-oxo-6-phenoxy-4H-chromen-3-yl)formamide]
Reduction in BUN compared to vehicle, significance in words [2]: significant reductions in BUN
BUN in comparison to control groups, in words [2]: less renal dysfunction and disease progression than the positive control treatment; also recorded: decreased in comparison to the sham surgery control group
